Values of other authors as cited in US20140004171A1, “TREATMENT OF ENDOMETRIOSIS BY INTRAVAGINAL ADMINISTRATION OF A LOW DOSE OF A SELECTIVE PROGESTERONE RECEPTOR MODULATOR (SPRM), ANTI-PROGESTIN, OR ANTI-PROGESTATIONAL AGENT” (ARSTAT Inc., priority 2011, published 2014).

Assays:
women with endometriosis [1] = details: oral, 5 mg daily for 6 months, seven women
women with endometriosis [2] = details: oral, 50 mg daily for 6 months, nine women
[3] = tested on: uterine and fibroid volumes
women with endometriosis [4] = details: oral, 100 mg daily for three months
liver enzymes = details: oral
[5] = tested on: endometrial lining of the uterus; details: oral

CC#C[C@]1(O)CC[C@H]2[C@@H]3CCC4=CC(=O)CCC4=C3[C@@H](c3ccc(N(C)C)cc3)C[C@@]21C [mifepristone]
Cyclic bleeding ceased (women with endometriosis [1]): all patients
Decrease of mean endometriosis scores (women with endometriosis [1]): 20%
Pelvic pain improved (women with endometriosis [1]): six of seven
Amenorrhea without hypoestrogenism (women with endometriosis [2]): All patients
Pelvic pain and uterine cramping improved (women with endometriosis [2]): all patients
Regression of endometriosis (laparoscopic assessment of endometrial implants, AFS score) (women with endometriosis [2]): 55%
Oral dose effective in the reduction of uterine and fibroid volumes and related symptoms [3]: ≥ 10 mg/day
Incidence of amenorrhea ([3]; oral, 2.5 mg/day): lower incidence of amenorrhea
Reduction of uterine volume ([3]; oral, 2.5 mg/day): appreciably smaller reduction of uterine volume
Ability to reduce uterine volume and eliminate some fibroid-related symptoms ([3]; oral, 5 mg/day): limited
Incidence of side effects (endometrial hyperplasia, hot flashes, elevated liver enzymes) ([3]; oral, 10 mg/day or higher): greater than desired
Amenorrhea reported (women with endometriosis [4]; six normally cycling women with endometriosis): all study participants
Change in the extent of endometriosis (follow-up laparoscopy) (women with endometriosis [4]; six women): no significant change
Improvement in pelvic pain (women with endometriosis [4]; six women): all women

COCC(=O)[C@@]1(OC(C)=O)CC[C@H]2[C@@H]3CCC4=CC(=O)CCC4=C3[C@@H](c3ccc(N(C)C)cc3)C[C@@]21C [CDB-4124]
Safety finding that suspended Phase III studies (liver enzymes): significant increases in liver enzymes

COC[C@]1(OC)CC[C@H]2[C@@H]3CCC4=CC(=O)CCC4=C3[C@@H](c3ccc(/C=N/O)cc3)C[C@@]21C [asoprisnil]
Safety finding that terminated Phase III studies [5]: changes in the endometrial lining of the uterus
